Here are results for six compounds from paper PMC7505085 (ACS chemical biology, 2015).

For one data set, the system named is T98G cells. Nature of the data set: cytotoxicity in mammalian cells. The data set is classed as cell-based. The settings on record: read-out: IC50 mammalian cells.
A further data set relates to T. b. brucei. Nature of the data set: growth inhibitory activity against axenic T. b. brucei parasites. The settings on record: highest concentration tested 10 μM; for pIC50: read-out: IC50 T. b. brucei. The data set is classed as cell-based, Trypanosoma brucei.
The test system of another data set is HeLa cells. Nature of the data set: cytotoxicity in mammalian cells. The format is cell-based. To be noted: read-out: IC50 mammalian cells.
For data set [1] the following is noted: HAT treatment; cited from earlier work.

pIC50: −log10 of the molar value. Where two headings read alike, the source gives them in different places. Bounds are passed on as bounds.

For `CC1=CC=CC[C@H](C)NC(=O)C=CC=CC=C[C@H](C)[C@@H](O)[C@H](O)[C@@H](O)C[C@@H](O)/C=C\C=CC(C)=C1` [Lobosamide A], the pIC50 (as a rule, the negative decadic logarithm of the IC50, by convention in mol/L) is less than 4.18 in the data set with T98G cells and 6.10 with T. b. brucei. Besides, the “antitrypanosomal activity (in words)” value in the data set with T. b. brucei is “sub-micromolar”.

`CC1=CC=CC[C@H](C)NC(=O)C=CC=CC=C[C@H](C)[C@@H](O)[C@H](O)[C@@H](O)C[C@@H](O)/C=C/C=CC(C)=C1` [Lobosamide B]: the pIC50 in the data set on T98G cells is less than 4.18; in the data set with T. b. brucei, 5.21; in the data set on T. b. brucei (listed as B), more than 5.00.

For `CC1=CC=CC[C@H](C)NC(=O)C=CC=CC=C[C@H](C)[C@@H](O)C[C@@H](O)C[C@@H](O)/C=C\C=CC(C)=C1` [Lobosamide C], in the data set with HeLa cells, the pIC50 was less than 4.48. Besides, in the data set with T. b. brucei, the “antitrypanosomal activity (in words)” value was “inactive” and the pIC50 was less than 5.00.

For `CC1=CC=CC=CC[C@H](C)NC(=O)C=CC=CC=CC[C@@H](O)[C@H](O)[C@@H](O)C[C@@H](O)C=CC=C1` [Mirilactam A], in the data set on T. b. brucei, the “antitrypanosomal activity (in words)” value was “lack of activity” and the pIC50 was less than 5.00.

Consider `CC1=CC=CC=CC[C@H](C)NC(=O)C=CC=CC=CC[C@@H](O)C[C@@H](O)C[C@@H](O)C=CC=C1` [Mirilactam B], for which the pIC50 in the data set with HeLa cells is less than 4.48; in the data set with T. b. brucei, less than 5.00.

On to `Nc1nc(N)nc(Nc2ccc([As]3SCC(CO)S3)cc2)n1` (centres unmarked) [melarsoprol], for which the drug-induced death rate in data set [1] is on record as 5%.
